Measured values published in ChEMBL document CHEMBL4507302, “Data for DCP probe TP-020” (2021).

Legend:
[1] = target: 5-hydroxytryptamine receptor 2A (Homo sapiens) (UniProt P28223); conditions: Compound concentration 10.0 uM
[2] = target: Protein-tyrosine kinase 6 (Homo sapiens) (UniProt Q13882); conditions: Compound concentration 1000.0 nM
[3] = target: Sodium-dependent noradrenaline transporter (Homo sapiens) (UniProt P23975); conditions: Compound concentration 10.0 uM
[4] = target: Casein kinase I isoform gamma-1 (Homo sapiens) (UniProt Q9HCP0); conditions: Compound concentration 1000.0 nM
[5] = target: Calcium/calmodulin-dependent protein kinase type 1 (Homo sapiens) (UniProt Q14012); conditions: Compound concentration 1000.0 nM
[6] = target: MAP kinase-interacting serine/threonine-protein kinase 1 (Homo sapiens) (UniProt Q9BUB5); conditions: Compound concentration 1000.0 nM
[7] = target: Mitogen-activated protein kinase 8 (Homo sapiens) (UniProt P45983); conditions: Compound concentration 1000.0 nM
Sequence of Mitogen-activated protein kinase 8 (Homo sapiens) (P45983 whole entry): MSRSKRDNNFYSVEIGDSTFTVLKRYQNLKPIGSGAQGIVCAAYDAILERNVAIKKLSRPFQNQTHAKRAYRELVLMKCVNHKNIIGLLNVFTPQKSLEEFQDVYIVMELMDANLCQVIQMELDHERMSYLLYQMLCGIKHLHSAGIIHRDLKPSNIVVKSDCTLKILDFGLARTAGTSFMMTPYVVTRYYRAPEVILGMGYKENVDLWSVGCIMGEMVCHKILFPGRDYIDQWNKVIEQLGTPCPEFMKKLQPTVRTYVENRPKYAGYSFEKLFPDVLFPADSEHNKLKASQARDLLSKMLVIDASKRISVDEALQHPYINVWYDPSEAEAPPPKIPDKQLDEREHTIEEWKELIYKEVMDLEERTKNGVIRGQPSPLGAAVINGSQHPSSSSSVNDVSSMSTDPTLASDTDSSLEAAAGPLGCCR

[8] = target: Serine/threonine-protein kinase 25 (Homo sapiens) (UniProt O00506); conditions: Compound concentration 1000.0 nM
Sequence of Serine/threonine-protein kinase 25 (Homo sapiens) (O00506 whole entry, looked up): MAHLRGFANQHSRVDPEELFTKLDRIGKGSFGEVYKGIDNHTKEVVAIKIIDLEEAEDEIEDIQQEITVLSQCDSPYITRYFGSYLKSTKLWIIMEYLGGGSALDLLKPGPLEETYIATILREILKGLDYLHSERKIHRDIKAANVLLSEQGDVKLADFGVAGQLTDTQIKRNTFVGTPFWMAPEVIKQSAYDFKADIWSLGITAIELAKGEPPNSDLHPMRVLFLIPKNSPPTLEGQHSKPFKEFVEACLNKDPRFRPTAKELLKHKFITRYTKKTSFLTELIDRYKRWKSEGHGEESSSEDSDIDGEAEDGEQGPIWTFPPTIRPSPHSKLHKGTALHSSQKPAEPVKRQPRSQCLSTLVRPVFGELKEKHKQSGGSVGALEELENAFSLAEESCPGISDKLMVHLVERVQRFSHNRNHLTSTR

[9] = target: Activin receptor type-2B (Homo sapiens) (UniProt Q13705); conditions: Compound concentration 1000.0 nM
[10] = target: Protein kinase C theta type (Homo sapiens) (UniProt Q04759); conditions: Compound concentration 1000.0 nM
[11] = target: Homeodomain-interacting protein kinase 4 (Homo sapiens) (UniProt Q8NE63); conditions: Compound concentration 1000.0 nM
[12] = target: Ephrin type-A receptor 7 (Homo sapiens) (UniProt Q15375); conditions: Compound concentration 1000.0 nM
[13] = target: Serine/threonine-protein kinase PLK4 (Homo sapiens) (UniProt O00444); conditions: Compound concentration 1000.0 nM
[14] = target: Receptor-interacting serine/threonine-protein kinase 1 (Homo sapiens) (UniProt Q13546); conditions: Compound concentration 1000.0 nM
[15] = target: cGMP-dependent protein kinase 2 (Homo sapiens) (UniProt Q13237); conditions: Compound concentration 1000.0 nM
[16] = target: Dual specificity tyrosine-phosphorylation-regulated kinase 1A (Homo sapiens) (UniProt Q13627); conditions: Compound concentration 1000.0 nM
[17] = tested on: Hepatocyte growth factor receptor (Homo sapiens), P08581 [M1250T]; conditions: Compound concentration 1000.0 nM
[18] = target: Serine/threonine-protein kinase 36 (Homo sapiens) (UniProt Q9NRP7); conditions: Compound concentration 1000.0 nM
[19] = target: Serine/threonine-protein kinase Chk1 (Homo sapiens) (UniProt O14757); conditions: Compound concentration 1000.0 nM
[20] = target: Wee1-like protein kinase (Homo sapiens) (UniProt P30291); conditions: Compound concentration 1000.0 nM
[21] = target: Phosphatidylinositol 4,5-bisphosphate 3-kinase catalytic subunit delta isoform (Homo sapiens) (UniProt O00329); conditions: Compound concentration 1000.0 nM
[22] = tested on: Proto-oncogene tyrosine-protein kinase receptor Ret (Homo sapiens), P07949 [M918T]; conditions: Compound concentration 1000.0 nM
[23] = target: Tyrosine-protein kinase Mer (Homo sapiens) (UniProt Q12866); conditions: Compound concentration 1000.0 nM
[24] = target: Uncharacterized serine/threonine-protein kinase SBK3 (Homo sapiens) (UniProt P0C264); conditions: Compound concentration 1000.0 nM
[25] = target: Serine/threonine-protein kinase B-raf (Homo sapiens) (UniProt P15056); conditions: Compound concentration 1000.0 nM
[26] = target: Serine/threonine-protein kinase DCLK2 (Homo sapiens) (UniProt Q8N568); conditions: Compound concentration 1000.0 nM
Sequence of Serine/threonine-protein kinase DCLK2 (Homo sapiens) (Q8N568 whole entry, the tested form may be a part): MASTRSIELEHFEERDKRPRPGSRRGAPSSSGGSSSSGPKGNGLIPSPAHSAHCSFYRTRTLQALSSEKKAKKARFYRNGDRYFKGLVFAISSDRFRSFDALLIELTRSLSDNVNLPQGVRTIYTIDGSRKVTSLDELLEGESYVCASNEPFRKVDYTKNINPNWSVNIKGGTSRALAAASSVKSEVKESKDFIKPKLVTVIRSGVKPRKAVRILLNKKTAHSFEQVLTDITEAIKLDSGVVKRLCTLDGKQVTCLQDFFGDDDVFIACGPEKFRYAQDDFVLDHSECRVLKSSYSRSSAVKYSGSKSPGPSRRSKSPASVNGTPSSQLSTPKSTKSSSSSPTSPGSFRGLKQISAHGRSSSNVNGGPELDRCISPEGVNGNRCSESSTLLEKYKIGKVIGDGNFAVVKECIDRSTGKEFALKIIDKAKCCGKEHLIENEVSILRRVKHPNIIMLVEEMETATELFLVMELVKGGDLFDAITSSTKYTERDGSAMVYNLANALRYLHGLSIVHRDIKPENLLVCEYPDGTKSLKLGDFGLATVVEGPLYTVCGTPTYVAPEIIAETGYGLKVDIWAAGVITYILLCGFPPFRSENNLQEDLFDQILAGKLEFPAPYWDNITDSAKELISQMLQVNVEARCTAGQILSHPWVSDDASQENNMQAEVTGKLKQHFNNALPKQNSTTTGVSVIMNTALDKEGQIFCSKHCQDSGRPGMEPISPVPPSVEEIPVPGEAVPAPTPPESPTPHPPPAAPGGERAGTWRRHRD

[27] = target: LIM domain kinase 2 (Homo sapiens) (UniProt P53671); conditions: Compound concentration 1000.0 nM
Sequence of LIM domain kinase 2 (Homo sapiens) (P53671 whole entry, looked up, the tested form may be a part): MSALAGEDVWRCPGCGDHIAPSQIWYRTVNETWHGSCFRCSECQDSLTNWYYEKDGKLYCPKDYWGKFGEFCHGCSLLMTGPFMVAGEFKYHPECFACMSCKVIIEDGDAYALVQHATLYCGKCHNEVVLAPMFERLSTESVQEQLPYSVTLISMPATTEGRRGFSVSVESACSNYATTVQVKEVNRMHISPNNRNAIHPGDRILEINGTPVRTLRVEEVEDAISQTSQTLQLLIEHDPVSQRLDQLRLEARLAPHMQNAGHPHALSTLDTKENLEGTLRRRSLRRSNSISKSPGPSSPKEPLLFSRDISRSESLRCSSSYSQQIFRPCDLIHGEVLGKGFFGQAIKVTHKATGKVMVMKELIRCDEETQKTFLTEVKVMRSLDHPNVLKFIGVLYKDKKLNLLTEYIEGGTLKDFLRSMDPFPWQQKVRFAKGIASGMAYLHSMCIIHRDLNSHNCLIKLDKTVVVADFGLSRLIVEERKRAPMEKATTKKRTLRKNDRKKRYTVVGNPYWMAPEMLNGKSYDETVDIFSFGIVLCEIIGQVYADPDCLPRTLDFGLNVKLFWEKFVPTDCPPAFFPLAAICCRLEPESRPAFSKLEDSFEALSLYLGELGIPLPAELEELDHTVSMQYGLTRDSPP

[28] = target: Mitogen-activated protein kinase 4 (Homo sapiens) (UniProt P31152); conditions: Compound concentration 1000.0 nM
[29] = tested on: Tyrosine-protein kinase ABL1 (Homo sapiens), P00519 [H396P]; conditions: Compound concentration 1000.0 nM
[30] = tested on: Receptor-type tyrosine-protein kinase FLT3 (Homo sapiens), P36888 [N841I]; conditions: Compound concentration 1000.0 nM
[31] = target: Serine/threonine-protein kinase Nek3 (Homo sapiens) (UniProt P51956); conditions: Compound concentration 1000.0 nM
[32] = target: Serine/threonine-protein kinase SBK1 (Homo sapiens) (UniProt Q52WX2); conditions: Compound concentration 1000.0 nM
[33] = target: Serine/threonine-protein kinase PAK 4 (Homo sapiens) (UniProt O96013); conditions: Compound concentration 1000.0 nM
[34] = tested on: Epidermal growth factor receptor (Homo sapiens), P00533 [L858R]; conditions: Compound concentration 1000.0 nM
[35] = target: Ephrin type-A receptor 6 (Homo sapiens) (UniProt Q9UF33); conditions: Compound concentration 1000.0 nM
[36] = target: Myotonin-protein kinase (Homo sapiens) (UniProt Q09013); conditions: Compound concentration 1000.0 nM
[37] = target: Cytoplasmic tyrosine-protein kinase BMX (Homo sapiens) (UniProt P51813); conditions: Compound concentration 1000.0 nM
Sequence of Cytoplasmic tyrosine-protein kinase BMX (Homo sapiens) (P51813 whole entry): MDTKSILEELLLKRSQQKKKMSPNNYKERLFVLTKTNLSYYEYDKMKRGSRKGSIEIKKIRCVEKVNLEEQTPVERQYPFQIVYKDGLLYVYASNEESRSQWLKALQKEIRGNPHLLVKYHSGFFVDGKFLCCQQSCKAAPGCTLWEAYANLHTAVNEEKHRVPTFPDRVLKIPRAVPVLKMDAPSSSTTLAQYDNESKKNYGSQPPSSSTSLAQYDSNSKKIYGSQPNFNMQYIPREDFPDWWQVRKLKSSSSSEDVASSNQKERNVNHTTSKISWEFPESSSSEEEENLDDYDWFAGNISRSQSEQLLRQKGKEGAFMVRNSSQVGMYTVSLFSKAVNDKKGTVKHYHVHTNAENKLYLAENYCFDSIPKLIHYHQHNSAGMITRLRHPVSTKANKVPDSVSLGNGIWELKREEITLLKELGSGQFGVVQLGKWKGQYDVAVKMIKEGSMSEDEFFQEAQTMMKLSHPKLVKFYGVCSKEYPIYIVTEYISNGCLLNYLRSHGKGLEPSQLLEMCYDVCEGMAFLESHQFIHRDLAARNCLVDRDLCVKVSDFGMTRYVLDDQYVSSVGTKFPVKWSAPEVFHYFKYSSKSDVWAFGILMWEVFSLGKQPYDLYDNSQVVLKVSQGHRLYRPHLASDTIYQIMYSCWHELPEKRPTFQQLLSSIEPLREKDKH

[38] = target: Proto-oncogene tyrosine-protein kinase receptor Ret (Homo sapiens) (UniProt P07949); conditions: Compound concentration 1000.0 nM
[39] = tested on: Receptor-type tyrosine-protein kinase FLT3 (Homo sapiens), P36888 [D835H]; conditions: Compound concentration 1000.0 nM
[40] = target: Muscarinic acetylcholine receptor M4 (Homo sapiens) (UniProt P08173); conditions: Compound concentration 10.0 uM
[41] = tested on: Tyrosine-protein kinase ABL1 (Homo sapiens), P00519 [F317I]; conditions: Compound concentration 1000.0 nM
[42] = target: Inhibitor of nuclear factor kappa-B kinase subunit epsilon (Homo sapiens) (UniProt Q14164); conditions: Compound concentration 1000.0 nM
Sequence of Inhibitor of nuclear factor kappa-B kinase subunit epsilon (Homo sapiens) (Q14164 whole entry): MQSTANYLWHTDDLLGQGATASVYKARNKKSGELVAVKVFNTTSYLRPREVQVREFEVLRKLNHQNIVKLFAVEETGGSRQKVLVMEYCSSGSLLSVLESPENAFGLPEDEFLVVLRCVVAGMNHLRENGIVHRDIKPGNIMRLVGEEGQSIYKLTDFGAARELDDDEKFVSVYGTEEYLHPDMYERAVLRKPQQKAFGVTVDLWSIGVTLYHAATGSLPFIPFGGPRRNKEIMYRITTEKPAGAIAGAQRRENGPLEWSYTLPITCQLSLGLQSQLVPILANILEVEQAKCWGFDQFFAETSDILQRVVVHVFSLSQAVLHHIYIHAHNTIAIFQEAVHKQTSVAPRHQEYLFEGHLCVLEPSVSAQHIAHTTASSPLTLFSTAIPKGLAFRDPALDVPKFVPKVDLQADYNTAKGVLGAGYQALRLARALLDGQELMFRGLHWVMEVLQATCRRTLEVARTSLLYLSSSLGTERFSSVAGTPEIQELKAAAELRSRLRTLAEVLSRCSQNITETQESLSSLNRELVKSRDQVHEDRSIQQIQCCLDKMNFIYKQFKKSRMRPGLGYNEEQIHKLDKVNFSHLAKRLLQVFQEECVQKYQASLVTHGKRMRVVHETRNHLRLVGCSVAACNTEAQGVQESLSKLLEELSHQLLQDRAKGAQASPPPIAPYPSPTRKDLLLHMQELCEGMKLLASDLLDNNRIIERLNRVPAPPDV

[43] = target: Mitogen-activated protein kinase kinase kinase 20 (Homo sapiens) (UniProt Q9NYL2); conditions: Compound concentration 1000.0 nM
[44] = target: cAMP-dependent protein kinase catalytic subunit PRKX (Homo sapiens) (UniProt P51817); conditions: Compound concentration 1000.0 nM
[45] = target: Phosphatidylinositol 5-phosphate 4-kinase type-2 beta (Homo sapiens) (UniProt P78356); conditions: Compound concentration 1000.0 nM
Sequence of Phosphatidylinositol 5-phosphate 4-kinase type-2 beta (Homo sapiens) (P78356 whole entry): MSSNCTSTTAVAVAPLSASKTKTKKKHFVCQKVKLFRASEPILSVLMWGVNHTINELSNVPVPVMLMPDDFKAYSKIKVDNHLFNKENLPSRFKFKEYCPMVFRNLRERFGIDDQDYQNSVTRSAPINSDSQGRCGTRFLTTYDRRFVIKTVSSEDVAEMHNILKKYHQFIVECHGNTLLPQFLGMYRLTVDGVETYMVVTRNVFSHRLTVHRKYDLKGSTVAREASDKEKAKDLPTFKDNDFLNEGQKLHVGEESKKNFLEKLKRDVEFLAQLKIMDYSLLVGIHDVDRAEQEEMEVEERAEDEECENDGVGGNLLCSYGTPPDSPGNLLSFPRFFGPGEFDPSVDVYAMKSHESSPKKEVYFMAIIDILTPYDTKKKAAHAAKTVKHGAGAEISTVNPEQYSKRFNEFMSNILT

Sequence of Protein-tyrosine kinase 6 (Homo sapiens) (Q13882 whole entry, looked up): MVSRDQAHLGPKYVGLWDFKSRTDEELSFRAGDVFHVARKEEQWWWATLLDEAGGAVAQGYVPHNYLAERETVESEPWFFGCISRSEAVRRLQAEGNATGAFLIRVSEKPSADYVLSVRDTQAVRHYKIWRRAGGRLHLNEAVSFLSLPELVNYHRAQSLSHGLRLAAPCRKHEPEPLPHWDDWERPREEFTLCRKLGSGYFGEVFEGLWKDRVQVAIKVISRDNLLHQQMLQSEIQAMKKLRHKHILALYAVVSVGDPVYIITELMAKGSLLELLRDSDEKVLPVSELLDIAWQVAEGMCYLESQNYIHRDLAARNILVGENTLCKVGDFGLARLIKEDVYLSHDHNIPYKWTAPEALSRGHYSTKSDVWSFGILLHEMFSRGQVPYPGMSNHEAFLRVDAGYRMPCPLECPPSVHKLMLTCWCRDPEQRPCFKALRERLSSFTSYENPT
Sequence of 5-hydroxytryptamine receptor 2A (Homo sapiens) (P28223 whole entry): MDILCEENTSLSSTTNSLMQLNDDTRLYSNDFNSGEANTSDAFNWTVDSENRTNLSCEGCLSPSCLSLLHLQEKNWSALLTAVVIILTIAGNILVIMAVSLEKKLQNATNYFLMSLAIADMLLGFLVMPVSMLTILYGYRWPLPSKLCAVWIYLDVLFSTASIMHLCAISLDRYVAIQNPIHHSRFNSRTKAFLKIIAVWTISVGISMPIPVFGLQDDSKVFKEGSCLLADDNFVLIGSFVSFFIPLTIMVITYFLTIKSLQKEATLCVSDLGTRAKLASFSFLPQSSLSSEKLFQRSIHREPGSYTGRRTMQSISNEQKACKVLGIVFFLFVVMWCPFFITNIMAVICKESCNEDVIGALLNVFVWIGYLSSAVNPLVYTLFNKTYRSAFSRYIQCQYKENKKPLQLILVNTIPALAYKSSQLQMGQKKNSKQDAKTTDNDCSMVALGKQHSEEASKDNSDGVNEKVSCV

Nc1cnc(N2CCc3cc(S(=O)(=O)Nc4c(F)cc(Cl)cc4F)cc(N4CCCC4=O)c32)nc1
inactive: inhibition [1] -2.82% | residual activity [2] 100% | inhibition [3] 18.2% | residual activity [4] 97% | residual activity [5] 88% | residual activity [6] 98% | residual activity [7] 78% | residual activity [8] 88% | residual activity [9] 80% | residual activity [10] 89% | residual activity [11] 100% | residual activity [12] 85% | residual activity [13] 100% | residual activity [14] 92% | residual activity [15] 84% | residual activity [16] 80% | residual activity [17] 100% | residual activity [18] 98% | residual activity [19] 95% | residual activity [20] 72% | residual activity [21] 88% | residual activity [22] 100% | residual activity [23] 100% | residual activity [24] 100% | residual activity [25] 98% | residual activity [26] 100% | residual activity [27] 100% | residual activity [28] 100% | residual activity [29] 94% | residual activity [30] 89% | residual activity [31] 100% | residual activity [32] 83% | residual activity [33] 89% | residual activity [34] 85% | residual activity [35] 98% | residual activity [36] 100% | residual activity [37] 100% | residual activity [38] 89% | residual activity [39] 100% | inhibition [40] 9.99% | residual activity [41] 100% | residual activity [42] 95% | residual activity [43] 95% | residual activity [44] 99% | residual activity [45] 100%

Cn1nc(C(F)(F)F)cc1-c1cnc(N2CCc3cc(S(=O)(=O)Nc4c(F)cc(Cl)cc4F)cc(N4CCCC4=O)c32)nc1 [TP-020]
inactive: inhibition [1] 8.54% | residual activity [2] 90% | inhibition [3] 5.69% | residual activity [4] 100% | residual activity [5] 95% | residual activity [6] 72% | residual activity [7] 100% | residual activity [8] 100% | residual activity [9] 87% | residual activity [10] 100% | residual activity [11] 100% | residual activity [12] 78% | residual activity [13] 77% | residual activity [14] 100% | residual activity [15] 90% | residual activity [16] 93% | residual activity [17] 94% | residual activity [18] 100% | residual activity [19] 100% | residual activity [20] 88% | residual activity [21] 84% | residual activity [22] 100% | residual activity [23] 100% | residual activity [24] 79% | residual activity [25] 82% | residual activity [26] 100% | residual activity [27] 100% | residual activity [28] 100% | residual activity [29] 81% | residual activity [30] 94% | residual activity [31] 90% | residual activity [32] 92% | residual activity [33] 100% | residual activity [34] 100% | residual activity [35] 89% | residual activity [36] 82% | residual activity [37] 81% | residual activity [38] 87% | residual activity [39] 100% | inhibition [40] 41.2% | residual activity [41] 71% | residual activity [42] 94% | residual activity [43] 98% | residual activity [44] 97% | residual activity [45] 100%
